Reference: patent publication US20040034099A1, “Pharmaceutical composition” (priority 2002, published 2004)

Experiment: Excipient screen (fillers, disintegrants, glidants, lubricants): tablets evaluated at accelerated conditions
Assay type: physicochemical
Conditions: tablets at accelerated conditions (40° C./75% RH); for filler the active ingredient is compatible with: physical characteristics and content of active ingredient
Description: Experiments to screen fillers, disintegrants, glidants and lubricants were conducted for the composition according to the present invention. Tablets were evaluated for physical characteristics and content of active ingredient at accelerated conditions (40° C./75% RH). The assay values were analysed statistically. […] Of all lubricants examined, chlorambucil was most compatible with stearic acid.

With `N[C@@H](Cc1ccc(N(CCCl)CCCl)cc1)C(=O)O` [melphalan, 4-[bis(2-chloroethyl)amino]-L-phenylalanine] the “filler the active ingredient is compatible with” value was “microcrystalline cellulose”.
With `O=C(O)CCCc1ccc(N(CCCl)CCCl)cc1` [chlorambucil, 4-[bis(2-chloroethyl)amino]-benzenebutanoic acid] the “lubricant the active ingredient is most compatible with” value (of all lubricants examined) was “stearic acid” and the “filler the active ingredient is compatible with” value was “a mixture of anhydrous lactose and microcrystalline cellulose”.
